# Earlier results, collected in patent publication US20230355898A1, “NEBULIZER AND NEBULIZED ANTI-VIRALS” (priority 2020, published 2023).
# Counter-ions that a name gives are not always drawn. Like-named read-outs stand apart in the source and are kept apart here.
# What was measured:
# [1] = system: SARS-CoV-2 pseudoparticulates; conditions: drug at human blood maximum concentrations in fluid and airway channels; Si, 2020
# SARS-CoV-2 [2] = conditions: for SARS-CoV-2 viral load measured by RT-qPCR of the viral N transcript: COVID-19 hamster model, Intraperitoneal (IP) administration; for prophylactic efficacy in reducing SARS-CoV-2 infection: hamsters, 50 mg/kg SC QD, virus intranasal or by association with nasally infected animals; for reduction in viral load or change in disease progression: Rosenke
# SARS-CoV-2 [3] = conditions: Vero 6, SARS-Cov-2, pretreatment; Si, 2020; read-out: Inhibition of infection IC50
# [4] = system: SARS-CoV-2 pseudoparticulates (pp); conditions: Huh-7, SARS-CoV-2pp, concurrent treatment, Si, 2020
# SARS-CoV-2 [5] = conditions: read-out: Viral Replication EC50 @ 48 hr, Vero 6, Concurrent, Wang, 2020
# [6] = free base; PubChem
# SARS-CoV-2 [7] = conditions: Rhesus Macaque, Rosenke, 2020
# [8] = not given; remark: listed apart in the source
# [9] = rat, in vivo
# [10] = four-route infection on day 0, 6 mg/kg PO 12 18, 36, 60, 84 and 108 hours post-infection (therapeutic)
# [11] = four-route infection on day 0, 6 mg/kg PO on days −9, −2, and 5 (prophylactic)
smiles,measurement,setting,value
CCN(CC)Cc1cc(Nc2ccnc3cc(Cl)ccc23)ccc1O.Cl.Cl [ADQ hydrochloride],Inhibition of SARS-CoV-2pp entry into LAC epithelial cells (qPCR of viral mRNA),[1],inhibited
same,SARS-CoV-2 viral load measured by RT-qPCR of the viral N transcript,"SARS-CoV-2 [2]; Si, 2020",able to reduce
same,prophylactic efficacy in reducing SARS-CoV-2 infection,SARS-CoV-2 [2],effective
"CCN(CC)Cc1cc(Nc2ccnc3cc(Cl)ccc23)ccc1O [ADQ, amodiaquine]",IC50,SARS-CoV-2 [3],10.3 µM
same,Inhibition of viral entry: % entry @ 1 μM,[4],10% entry @1 μM
same,Inhibition of viral entry: % entry @ 5 μM,[4],30% entry @ 5 μM;
same,reduction in viral load on day 4,"SARS-CoV-2 [2]; Hamster, exposure of healthy animals to nasally infected animals on day 2, 50 mg/kg SC day 1 and days 2, 3, 4, Si, 2020",90% reduction in
same,reduction in viral load on day 4,"SARS-CoV-2 [2]; Hamster, nasal infection on day 2, 50 mg/kg SC 1 day before infection and days 2, 3, 4, Si, 2020",70% reduction in
same,prophylactic efficacy in reducing SARS-CoV-2 infection,SARS-CoV-2 [2],exhibit prophylactic efficacy
same,T1/2,"human, in vivo, iv",0.083 days
same,V2,"in vivo, iv",39 L
CCN(CC)CCCC(C)Nc1ccnc2cc(Cl)ccc12.O=P(O)(O)O.O=P(O)(O)O (stereo not drawn) [CQ phosphate],Inhibition of SARS-CoV-2pp entry into LAC epithelial cells (qPCR of viral mRNA),[1],lack of efficacy
"CCN(CC)CCCC(C)Nc1ccnc2cc(Cl)ccc12 (stereo not drawn) [CQ, chloroquine]",Inhibition of SARS-CoV-2pp entry into LAC epithelial cells (qPCR of viral mRNA),[1],lack of efficacy
same,EC50,SARS-CoV-2 [5],1.13 µM
same,Inhibition of viral entry: % entry @ 1 μM,[4],10% entry @ 1 μM
same,Inhibition of viral entry: % entry @ 5 μM,[4],50% entry @ 5 μM;
same,T1/2,IV in humans,23.7 days
same,V2,IV in humans,"7,973 L"
"CCNCc1cc(Nc2ccnc3cc(Cl)ccc23)ccc1O [DEAQ, desethylamodiaquine]",IC50,SARS-CoV-2 [3],8.5 µM
same,Log P,[6],2.3
"CCN(CCO)CCCC(C)Nc1ccnc2cc(Cl)ccc12 (stereo not drawn) [HCQ sulfate, hydroxychloroquine sulfate]","effect upon viral loads at days 3, 5, or 7, or disease pathology through post-mortem on day 7",SARS-CoV-2 [7]; [10],ineffective
same,"effect upon viral loads at days 3, 5, or 7, or disease pathology through post-mortem on day 7",SARS-CoV-2 [7]; [11],ineffective
same,Inhibition of SARS-CoV-2pp entry into LAC epithelial cells (qPCR of viral mRNA),[1],lack of efficacy
same,SARS-CoV-2 viral load measured by RT-qPCR of the viral N transcript,"SARS-CoV-2 [2]; Si, 2020",ineffective
same,reduction in viral load on day 5,"SARS-CoV-2 [2]; Hamster, exposure to nasally infected animals on day 2, 600 mg/kg IP day 1 and 50 mg/kg IP days 2, 3, 4, 5, Kapstein, 2020",ineffective
same,reduction in viral load or change in disease progression,"SARS-CoV-2 [2]; Hamster, nasal infection on day 1, 50 mg/kg IP 1 hr after infection and days 2, 3 (therapeutic), 2020, 50 mg/kg",ineffective
same,reduction in viral load or change in disease progression,"SARS-CoV-2 [2]; Hamster, nasal infection on day 2, 50 mg/kg IP 1 day before infection and days 2, 3, 4 (prophylactic), 2020, 50 mg/kg",ineffective
same,reduction in viral load on day 4,"SARS-CoV-2 [2]; Hamster, nasal infection on day 2, 50 mg/kg IP 1 day before infection and days 2, 3, 4, Kapstein, 2020, 50 mg/kg",ineffective
same,clinical endpoints for asthma (Phase II),[8]; nebulized,did not meet its clinical endpoints
same,tolerability of pulmonary doses,"[8]; nebulized hypertonic 100 mg/mL, up to 20 mg QD",well tolerated with minimal side effects
same,"lung drug concentrations, IT versus IV solution",[9],higher lung drug concentrations
"CCN(CCO)CCCC(C)Nc1ccnc2cc(Cl)ccc12 (stereo not drawn) [HCQ, hydroxychloroquine]","effect upon viral loads at days 3, 5, or 7, or disease pathology through post-mortem on day 7",SARS-CoV-2 [7]; [10],No effect upon viral
same,"effect upon viral loads at days 3, 5, or 7, or disease pathology through post-mortem on day 7",SARS-CoV-2 [7]; [11],No effect upon viral
same,Inhibition of SARS-CoV-2pp entry into LAC epithelial cells (qPCR of viral mRNA),[1],repeatedly failed
same,Inhibition of viral entry: % entry @ 1 μM,[4],30% entry @ 1 μM
same,Inhibition of viral entry: % entry @ 5 μM,[4],50% entry @ 5 μM;
same,Log P,[6],3.9
same,T1/2,"human, in vivo, iv",26.2 days
same,V2,"in vivo, iv","26,711 L"
